From patent US8067445B2, “N,N-disubstituted aminoalkylbiphenyl antagonists of prostaglandin D2 receptors” (Panmira Pharmaceuticals, LLC, priority 2008, dated 2011)

Tests used:
human DP2 receptor = target: T1, human DP2 receptor (Homo sapiens, UniProt Q9Y5Y4); test: DP2/CRTH2 radioligand binding assay ([3H]PGD2); conditions: [3H]PGD2 binding, membranes of HEK293 cells expressing human DP2; read-out: hDP2
T1 construct: expressed in transfected cells
T1 sequence (Q9Y5Y4 1-395): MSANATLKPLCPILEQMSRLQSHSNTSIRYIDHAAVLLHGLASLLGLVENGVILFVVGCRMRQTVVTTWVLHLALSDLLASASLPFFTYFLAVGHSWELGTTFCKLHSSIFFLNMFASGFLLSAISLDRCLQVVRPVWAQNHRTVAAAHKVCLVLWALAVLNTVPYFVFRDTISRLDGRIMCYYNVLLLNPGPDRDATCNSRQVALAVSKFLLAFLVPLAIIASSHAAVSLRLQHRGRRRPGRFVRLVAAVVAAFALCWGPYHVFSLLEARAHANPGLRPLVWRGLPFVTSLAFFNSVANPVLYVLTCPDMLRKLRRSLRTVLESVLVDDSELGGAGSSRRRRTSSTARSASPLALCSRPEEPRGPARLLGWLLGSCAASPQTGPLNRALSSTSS
Outline: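 Membranes from HEK293 cells stably expressing recombinant human DP2 incubated 60 min at room temperature with 1 nM [3H]PGD2 and compound in pH 7.4 Hepes/MnCl2/EDTA buffer, ± 0.2% human serum albumin. Bound radioactivity measured after filtration; non-specific binding defined with 10 μM PGD2. IC50 from titration curves.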

human DP1 receptor = target: T2, human DP1 receptor (Homo sapiens, UniProt Q13258); test: DP1 radioligand binding assay ([3H]BWA868C, platelet membranes); conditions: [3H]BWA868C binding, human platelet membranes; read-out: hDP1
T2 construct: tissue Biological Specialty Corporation; host or cells: human platelet membranes
T2 sequence (Q13258 1-359): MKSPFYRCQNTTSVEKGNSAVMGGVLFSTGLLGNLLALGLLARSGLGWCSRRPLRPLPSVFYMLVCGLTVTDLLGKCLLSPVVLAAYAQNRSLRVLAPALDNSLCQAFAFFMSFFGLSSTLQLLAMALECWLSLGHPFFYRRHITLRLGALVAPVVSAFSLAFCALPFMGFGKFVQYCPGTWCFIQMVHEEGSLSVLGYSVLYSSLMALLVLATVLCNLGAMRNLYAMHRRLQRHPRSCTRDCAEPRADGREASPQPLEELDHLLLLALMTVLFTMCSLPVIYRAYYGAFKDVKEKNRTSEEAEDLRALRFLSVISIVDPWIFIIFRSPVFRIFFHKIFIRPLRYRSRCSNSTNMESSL
Outline: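 Human platelet membranes (20 μg protein/well) incubated 60 min at room temperature with 2 nM [3H]BWA868C and compound in 50 mM Hepes, 10 mM MnCl2, 1 mM EDTA, pH 7.4, ± 0.2% human serum albumin. Bound radioactivity measured after filtration; nonspecific binding defined with 10 μM BWA868C; IC50 from titration curves.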

IC50 (human DP2 receptor) | IC50 (human DP1 receptor) | SMILES
300 to 1000 nM | 1000 to 30000 nM | CCN(Cc1cc(C(F)(F)F)ccc1-c1cc(CC(=O)O)ccc1OC)C(=O)Cn1cncn1 [Compound 1-150, (2′-{[Ethyl-(2-[1,2,4]triazol-1-yl-acetyl)-amino]-methyl}-6-methoxy-4′-trifluoromethyl-biphenyl-3-yl)-acetic acid]
1000 to 30000 nM | 1000 to 30000 nM | CCN(Cc1cc(C(F)(F)F)ccc1-c1cc(CC(=O)O)ccc1OC)C(=O)CN1CCCC1 [Compound 1-151, (2′-{[Ethyl-(2-pyrrolidin-1-yl-acetyl)-amino]-methyl}-6-methoxy-4′-trifluoromethyl-biphenyl-3-yl)-acetic acid]
< 300 nM | 1000 to 30000 nM | CCN(Cc1cc(NC(=O)c2ccc(Cl)cc2)ccc1-c1cc(CC(=O)O)ccc1OC)C(=O)OCc1ccccc1 [Compound 1-154, [2′-[(Benzyloxycarbonyl-ethyl-amino)-methyl]-4′-(4-chloro-benzoylamino)-6-methoxy-biphenyl-3-yl]-acetic acid]
< 300 nM | 1000 to 30000 nM | CCN(Cc1cc(NS(=O)(=O)c2ccc(Cl)cc2)ccc1-c1cc(CC(=O)O)ccc1OC)C(=O)OCc1ccccc1 [Compound 1-156, [2′-[(Benzyloxycarbonyl-ethyl-amino)-methyl]-4′-(4-chloro-benzenesulfonylamino)-6-methoxy-biphenyl-3-yl]-acetic acid]
< 300 nM | 1000 to 30000 nM | CCN(Cc1cc(C(F)(F)F)ccc1-c1cc(Cl)cc(CC(=O)O)c1)C(=O)NCc1ccccc1 [Compound 1-157, [2′-(3-Benzyl-1-ethyl-ureidomethyl)-5-chloro-4′-trifluoromethyl-biphenyl-3-yl]-acetic acid]
< 300 nM | 1000 to 30000 nM | CCN(Cc1cc(C(F)(F)F)ccc1-c1cc(CC(=O)O)cc(C(F)(F)F)c1)C(=O)NCc1ccccc1 [Compound 1-158, [2′-(3-Benzyl-1-ethyl-ureidomethyl)-5,4′-bis-trifluoromethyl-biphenyl-3-yl]-acetic acid]
< 300 nM | 1000 to 30000 nM | CCN(Cc1cc(C(F)(F)F)ccc1-c1cc(F)cc(CC(=O)O)c1)C(=O)NCc1ccccc1 [Compound 1-159, [2′-(3-Benzyl-1-ethyl-ureidomethyl)-5-fluoro-4′-trifluoromethyl-biphenyl-3-yl]-acetic acid]
< 300 nM | 1000 to 30000 nM | CCN(Cc1cc(C(F)(F)F)ccc1-c1cc(CC(=O)O)cc(C(F)(F)F)c1)C(=O)OC [Compound 1-163, {2′-[(Ethyl-methoxycarbonyl-amino)-methyl]-5,4′-bis-trifluoromethyl-biphenyl-3-yl}-acetic acid]
< 300 nM | 1000 to 30000 nM | CCN(Cc1cc(C(F)(F)F)ccc1-c1cc(Cl)cc(CC(=O)O)c1)C(=O)OC [Compound 1-164, {5-Chloro-2′-[(ethyl-methoxycarbonyl-amino)-methyl]-4′-trifluoromethyl-biphenyl-3-yl}-acetic acid]
< 300 nM | 300 to 1000 nM | CCN(Cc1ccc(C(F)(F)F)cc1-c1cc(CC(=O)O)ccc1OC)C(=O)OCc1ccc(F)cc1 [Compound 1-168, (2′-{[Ethyl-(4-fluoro-benzyloxycarbonyl)-amino]-methyl}-6-methoxy-5′-trifluoromethyl-biphenyl-3-yl)-acetic acid]
< 300 nM | 1000 to 30000 nM | CCN(Cc1ccc(C)cc1-c1cc(CC(=O)O)ccc1OC)C(=O)OCc1ccc(F)cc1 [Compound 1-169, (2′-{[Ethyl-(4-fluoro-benzyloxycarbonyl)-amino]-methyl}-6-methoxy-5′-methyl-biphenyl-3-yl)-acetic acid]
< 300 nM | 1000 to 30000 nM | CCN(Cc1ccc(C(F)(F)F)cc1-c1cc(CC(=O)O)ccc1OC)C(=O)C1CC1 [Compound 1-170, {2′-[(Cyclopropanecarbonyl-ethyl-amino)-methyl]-6-methoxy-5′-trifluoromethyl-biphenyl-3-yl}-acetic acid]
< 300 nM | 1000 to 30000 nM | CCN(Cc1ccc(C)cc1-c1cc(CC(=O)O)ccc1OC)C(=O)C1CC1 [Compound 1-171, {2′-[(Cyclopropanecarbonyl-ethyl-amino)-methyl]-6-methoxy-5′-methyl-biphenyl-3-yl}-acetic acid]
< 300 nM | 1000 to 30000 nM | CCN(Cc1ccc(C(F)(F)F)cc1-c1cc(CC(=O)O)ccc1OC)C(=O)NCc1ccccc1 [Compound 1-172, [2′-(3-Benzyl-1-ethyl-ureidomethyl)-6-methoxy-5′-trifluoromethyl-biphenyl-3-yl]-acetic acid]
< 300 nM | 1000 to 30000 nM | CCN(Cc1ccc(C)cc1-c1cc(CC(=O)O)ccc1OC)C(=O)NCc1ccccc1 [Compound 1-173, [2′-(3-Benzyl-1-ethyl-ureidomethyl)-6-methoxy-5′-methyl-biphenyl-3-yl]-acetic acid]
< 300 nM | 300 to 1000 nM | CCN(Cc1ccc(C(F)(F)F)cc1-c1cc(CC(=O)O)ccc1OC)C(=O)OCc1ccc(Cl)cc1 [Compound 1-174, (2′-{[(4-Chloro-benzyloxycarbonyl)-ethyl-amino]-methyl}-6-methoxy-5′-trifluoromethyl-biphenyl-3-yl)-acetic acid]
< 300 nM | 300 to 1000 nM | CCN(Cc1ccc(C)cc1-c1cc(CC(=O)O)ccc1OC)C(=O)OCc1ccc(Cl)cc1 [Compound 1-175, (2′-{[(4-Chloro-benzyloxycarbonyl)-ethyl-amino]-methyl}-6-methoxy-5′-methyl-biphenyl-3-yl)-acetic acid]
< 300 nM | 1000 to 30000 nM | CCN(Cc1cc(C(F)(F)F)ccc1-c1cc(CC(=O)O)ccc1OC)C(=O)NC1CC1 [Compound 1-182]
1000 to 30000 nM | 1000 to 30000 nM | CCN(Cc1cc(C(F)(F)F)ccc1-c1cc(CC(C)(C)O)ccc1OC)C(C)=O [Compound 2-2, N-Ethyl-N-[5′-(2-hydroxy-2-methyl-propyl)-2′-methoxy-4-trifluoromethyl-biphenyl-2-ylmethyl]-acetamide]
> 30000 nM | 1000 to 30000 nM | CCN(Cc1cc(C(F)(F)F)ccc1-c1cc(CC#N)ccc1OC)C(=O)C1CC1 [Compound 2-3, Cyclopropanecarboxylic acid (5′-cyanomethyl-2′-methoxy-4-trifluoromethyl-biphenyl-2-ylmethyl)-ethyl-amide]
> 30000 nM | 1000 to 30000 nM | CCN(Cc1cc(C(F)(F)F)ccc1-c1cc(CC#N)ccc1OC)C(=O)OCc1ccccc1 [Compound 2-4, (5′-Cyanomethyl-2′-methoxy-4-trifluoromethyl-biphenyl-2-ylmethyl)-ethyl-carbamic acid benzyl ester]
< 300 nM | < 300 nM | CCN(Cc1cc(C(F)(F)F)ccc1-c1cc(Cc2nn[nH]n2)ccc1OC)C(=O)OCc1ccccc1 [Compound 2-5, Ethyl-[2′-methoxy-5′-(2H-tetrazol-5-ylmethyl)-4-trifluoromethyl-biphenyl-2-ylmethyl]-carbamic acid benzyl ester]
1000 to 30000 nM | 1000 to 30000 nM | CCN(Cc1cc(C(F)(F)F)ccc1-c1cc(CC(N)=O)ccc1OC)C(=O)OCc1ccccc1 [Compound 2-6, (5′-Carbamoylmethyl-2′-methoxy-4-trifluoromethyl-biphenyl-2-ylmethyl)-ethyl-carbamic acid benzyl ester]
